Test results as given in patent publication US20140037694A1, “ADJUVANT FOR TRANSDERMAL OR TRANSMUCOSAL ADMINISTRATION AND PHARMACEUTICAL PREPARATION CONTAINING SAME” (HISAMITSU PHARMACEUTICAL CO., INC., priority 2011, published 2014).
“Also recorded” adds a separate entry of the source.

Assays:
[1] = tested on: OVA-specific IgG antibody titer; assay: Microneedle (OVA) application + transdermal adjuvant application; OVA-specific IgG antibody titer by ELISA; assay type: in vivo, hairless rats; conditions: for IgG antibody titer / adjuvant effect (FIG. 5): Example 5; for IgG antibody titer / adjuvant effect (FIG. 5) / IgG antibody titer / adjuvant effect (FIG. 2): 120 μL stock solution, 6 hr after OVA microneedles; for IgG antibody titer / adjuvant effect (FIG. 5) / IgG antibody titer / adjuvant effect (FIG. 1) / IgG antibody titer / adjuvant effect (FIG. 2): titers after 5 weeks; for IgG antibody titer / adjuvant effect (FIG. 5) / IgG antibody titer / adjuvant effect (FIG. 1): compared to OVA alone; for IgG antibody titer / adjuvant effect (FIG. 1): Example 1, 120 μL stock solution on patch-test tape for 6 hr after OVA microneedles, dosing weeks 0, 2, 4; for IgG antibody titer / adjuvant effect (FIG. 2): Example 3, purified water control; for Adjuvant effect against anti-OVA IgG: titers after 4 weeks
skin = tested on: skin; set-up: Skin irritation score: key to the marks not given beside the values; conditions: rat, in vivo
[2] = tested on: OVA-specific IgG antibody titer; assay: Intradermic injection (OVA) application + glycerin application; OVA-specific IgG antibody titer by ELISA; assay type: in vivo, hairless rats; conditions: Example 4; intradermal OVA 20 μg + glycerin co-used; after two weeks
Description: (§1) Regarding (i) and (ii), OVA 20 μg/[…] (saline) was intradermally administered.

[3] = tested on: OVA-specific IgG antibody titer; assay: Microneedle (OVA) application + transdermal adjuvant application; OVA-specific IgG antibody titer by ELISA; assay type: in vivo, hairless rats; conditions: Example 4
Description: as §1

CCCCCCCC/C=C\CCCCCCCC(=O)OCC(O)CO (stereo not shown) [GMO, monoglyceryl oleate]
IgG antibody titer / adjuvant effect (FIG. 5) [1]: adjuvant effect similar to that of low molecules such as glycerin

CC(O)CO (stereo not shown) [PG, propylene glycol]
IgG antibody titer / adjuvant effect (FIG. 5) [1]: strong adjuvant effect

CCO [ethanol]
IgG antibody titer / adjuvant effect (FIG. 1) [1]: high adjuvant effect | Skin irritation observation (skin): significant skin irritation accompanied by necrosis | Skin irritation score (skin): +++

OCC(O)CO [glycerin]
IgG antibody (FIG. 4) [2]: no IgG antibody was detected | IgG antibody titer / adjuvant effect (FIG. 1) [1]: high adjuvant effect | IgG antibody titer / adjuvant effect (FIG. 2) [1]: adjuvant effect of the glycerin was confirmed | IgG antibody titer / adjuvant effect (FIG. 5) [1]: strong adjuvant effect | Adjuvant effect against anti-OVA IgG ([1]; Example 6, glycerin concentration 25%, 120 μL 6 hr): none | Adjuvant effect against anti-OVA IgG ([1]; Example 6, glycerin concentration 75%, 120 μL 6 hr): excellent adjuvant effect was confirmed | Adjuvant effect against anti-OVA IgG ([1]; Example 6, glycerin concentration 75%, 120 μL 6 hr, listed as Glycerin): present | Adjuvant effect against anti-OVA IgG ([1]; Example 7, 100% glycerin applied 10 min after antigen administration by microneedles, 6 hr): apparent increase in the IgG antibody titer; also recorded: high IgG antibody titer | Adjuvant effect against anti-OVA IgG ([1]; Example 7, 100% glycerin applied 10 min after antigen administration by microneedles, 6 hr, listed as Glycerin): present | Adjuvant effect against anti-OVA IgG ([1]; Example 7, simultaneously with antigen, mixture of OVA/pullulan/41% glycerin on microneedles): no adjuvant effect was observed | Adjuvant effect against anti-OVA IgG ([1]; Example 7, simultaneously with antigen, mixture of OVA/pullulan/41% glycerin on microneedles, listed as Glycerin): none | Adjuvant effect ([1]; glycerin concentration 100 wt %): particularly excellent adjuvant effect | Adjuvant effect (FIG. 3) ([3]; OVA by microneedles + glycerin 120 μL 6 hr, titers after 4 weeks, compared to intradermal injection of OVA): exhibited more clearly by the microneedle application | IgG antibody titer time course (FIG. 4) ([3]; OVA microneedles with concomitant glycerin, from 2 weeks): increase the IgG antibody titer was observed

CC(C)=CCC/C(C)=C/CC/C(C)=C/CC/C=C(\C)CC/C=C(\C)CCC=C(C)C [squalene, reference compound]
IgG antibody titer / adjuvant effect (FIG. 2) [1]: low IgG antibody titer similar to the control | Skin irritation (skin): no skin irritation

CC(=O)OCC(COC(C)=O)OC(C)=O [triacetin]
IgG antibody titer / adjuvant effect (FIG. 5) [1]: strong adjuvant effect
